Results as given in ChEMBL document CHEMBL4699602, “Stapled and Xenopus Glucagon-Like Peptide 1 (GLP-1)-Based Dual GLP-1/Gastrin Receptor Agonists with Improved Metabolic Benefits in Rodent Models of Obesity and Diabetes” (J Med Chem, 2020).
Calls of active or inactive are those of the source. The calls are words filed in the database; no cut-off is given here. *1 amine or outer side, *2 acyl side, *3 side chain or, on linkers, in order; H or OH if unused. Bridges are numbered along the chain shown (N, C = ends). [ ]: non-standard residue; d: D form. X1 = CCCCCCCCCCCCCCCC(=O)NCCCCCCNC(=O)C(CCCCNC(=O)CCN1C(=O)CC([*:1])C1=O)NC(=O)CCN1C(=O)CC([*:2])C1=O; AEEA = NCCOCCOCC(=O)O; Aib = CC(C)(N)C(=O)O

Assays:
[1] = Renal toxicity in ICR mouse assessed as effect on blood urea nitrogen level at 1000 nmol/kg, sc BID for 14 days; format: organism-based; conditions: in vivo, 336 h, time 14 day
[2] = system: Mus musculus; assay: Improvement in insulin content in db/db mouse at 25 nmol/kg, sc BID for 21 days relative to control; format: functional, organism-based; conditions: time 21.0 day
[3] = system: Mus musculus; assay: Reduction in serum cholesterol in C57BL/6 mouse model of high-fat diet induced obesity at 25 nmol/kg, sc BID for 21 days relative to control; format: functional, organism-based; conditions: time 21.0 day
[4] = Half life in ICR mouse at 50 nmol/kg, sc up to 24 hrs by LC-MS/MS analysis; format: ADME, organism-based; conditions: in vivo
[5] = system: Mus musculus; assay: Insulinotropic activity in db/db mouse assessed as improvement in plasma insulin level at 25 nmol/kg, ip dosed 30 mins before test and measured up to 60 mins by OGTT method; format: functional, organism-based; conditions: time 90.0 min
[6] = system: Mus musculus; assay: Improvement in HbA1c level in db/db mouse at 25 nmol/kg, sc BID for 21 days relative to control; format: functional, organism-based; conditions: time 21.0 day
[7] = system: Mus musculus; assay: Improvement in glucose tolerance in db/db mouse at 25 nmol/kg, sc BID for 6 weeks followed by another 6 week saline treatment relative to control; format: functional, organism-based
[8] = system: Mus musculus; assay: Hypoglycemic activity in db/db mouse assessed as improvement in glucose tolerance at 25 nmol/kg, ip dosed 30 mins before test and measured up to 120 mins by OGTT method; format: functional, organism-based; conditions: time 150.0 min
[9] = biological target: Glucagon-like peptide 1 receptor (Homo sapiens, UniProt P43220); assay: Agonist activity at human GLP-1R expressed in HEK293 cells assessed as stimulation of cAMP accumulation incubated for 20 mins; format: functional, cell-based
[10] = system: Mus musculus; assay: Inhibition of pancreatic non-beta cell area (alpha-cell) level in db/db mouse at 25 nmol/kg, sc BID for 21 days relative to control; format: functional, organism-based; conditions: time 21.0 day
[11] = system: Mus musculus; assay: Reduction in body weight gain in db/db mouse at 25 nmol/kg, sc BID for 21 days relative to control; format: functional, organism-based; conditions: time 21.0 day
[12] = system: Rattus norvegicus; assay: Reduction of food intake in Sprague-Dawley rat at 25 nmol/kg, sc BID for 12 days; format: functional, organism-based; conditions: time 12.0 day
[13] = system: Mus musculus; assay: Inhibition of solid-phase gastric emptying in fasted ICR mouse at 25 nmol/kg, ip measured after 4 hrs by LC-MS/MS analysis; format: functional, organism-based
[14] = system: Mus musculus; assay: Improvement in fasted blood glucose level in db/db mouse at 25 nmol/kg, sc BID for 6 weeks followed by another 6 week saline treatment relative to control; format: functional, organism-based
[15] = system: Mus musculus; assay: Improvement in pancreatic beta cell area level in db/db mouse at 25 nmol/kg, sc BID for 21 days relative to control; format: functional, organism-based; conditions: time 21.0 day
[16] = Tmax in ICR mouse at 50 nmol/kg, sc up to 24 hrs by LC-MS/MS analysis; format: ADME, organism-based; conditions: in vivo
[17] = system: Mus musculus; assay: Reduction in Hb1Ac level in db/db mouse at 25 nmol/kg, sc BID for 6 weeks followed by another 6 week saline treatment relative to control; format: functional, organism-based
[18] = system: Mus musculus; assay: Improvement in glucose tolerance in C57BL/6 mouse model of high-fat diet induced obesity at 25 nmol/kg, sc BID for 21 days relative to control; format: functional, organism-based; conditions: time 21.0 day
[19] = system: Mus musculus; assay: Hypoglycemic activity in db/db mouse assessed as decrease in glucose excursion at 25 nmol/kg, ip dosed 30 mins before test and measured up to 120 mins by OGTT method; format: functional, organism-based; conditions: time 150.0 min
[20] = system: INS1; assay: Protection against glucotoxicity in rat INS1 cells assessed as recovery of cell viability after 24 hrs in presence of glucotoxicity media by MTT assay; format: functional, cell-based
[21] = Toxicity in Sprague-Dawley rat assessed as induction of kaolin intake at 25 nmol/kg, ip after 24 hrs by Kaolin consumption test; format: organism-based; conditions: in vivo
[22] = system: Mus musculus; assay: Improvement in fasted blood glucose level in db/db mouse at 25 nmol/kg, sc BID for 21 days relative to control; format: functional, organism-based; conditions: time 21.0 day
[23] = system: Mus musculus; assay: Reduction in fasting blood glucose in C57BL/6 mouse model of high-fat diet induced obesity at 25 nmol/kg, sc BID for 21 days relative to control; format: functional, organism-based; conditions: time 21.0 day
[24] = system: Mus musculus; assay: Inhibition of liquid-phase gastric emptying in 6 hrs fasted ICR mouse assessed as reduction in blood acetaminophen concentration at 25 nmol/kg, ip dosed 30 mins before acetaminophen dosing by LC-MS/MS analysis; format: functional, organism-based
[25] = system: Mus musculus; assay: Hypoglycemic activity in non-fasted db/db mouse assessed as improvement in glucose tolerance at dosed intraperitoneally 30 mins before test and measured up to 120 mins by OGTT method; format: functional, organism-based; conditions: time 150.0 min
[26] = system: Rattus norvegicus; assay: Reduction of food intake in Sprague-Dawley rat at 25 nmol/kg, ip after 24 hrs; format: functional, organism-based
[27] = system: INS1; assay: Toxicity in rat INS1 cells assessed as reduction cell viability up to 1000 nM after 24 hrs by MTT assay; format: cell-based; conditions: ins1, 24 h
[28] = Toxicity in Sprague-Dawley rat assessed as induction of kaolin intake at 25 nmol/kg, sc BID for 10 days by Kaolin consumption test; format: organism-based; conditions: in vivo, 240 h, time 10 day
[29] = AUC (0 to infinity) in ICR mouse at 50 nmol/kg, sc up to 24 hrs by LC-MS/MS analysis; format: ADME, organism-based; design: route subcutaneous, dose 50 nmol/kg, time <=24; conditions: in vivo
[30] = biological target: T1, Cholecystokinin receptor type A (Homo sapiens, UniProt P32238); assay: Agonist activity at human CCK-1R expressed in HEK293 cells assessed as stimulation of ERK phosphorylation incubated for 5 mins; format: cell-based
T1 sequence (P32238 whole entry): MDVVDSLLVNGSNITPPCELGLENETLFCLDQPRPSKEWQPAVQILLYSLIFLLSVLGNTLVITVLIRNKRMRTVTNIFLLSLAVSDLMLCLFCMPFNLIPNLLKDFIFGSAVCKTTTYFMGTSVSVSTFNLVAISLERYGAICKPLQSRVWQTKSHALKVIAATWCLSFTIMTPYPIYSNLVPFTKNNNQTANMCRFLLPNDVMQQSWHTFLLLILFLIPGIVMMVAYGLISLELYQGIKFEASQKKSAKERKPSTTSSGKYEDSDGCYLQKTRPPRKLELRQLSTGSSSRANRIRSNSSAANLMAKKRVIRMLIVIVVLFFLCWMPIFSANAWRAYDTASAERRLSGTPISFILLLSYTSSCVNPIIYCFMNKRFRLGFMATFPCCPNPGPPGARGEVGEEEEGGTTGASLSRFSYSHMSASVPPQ

[31] = system: Mus musculus; assay: Reduction in cumulated food intake in db/db mouse at 25 nmol/kg, sc BID for 21 days relative to control; format: functional, organism-based; conditions: time 21.0 day
[32] = Renal toxicity in ICR mouse assessed as effect on serum creatinine level at 1000 nmol/kg, sc BID for 14 days; format: organism-based; conditions: in vivo, 336 h, time 14 day
[33] = system: Mus musculus; assay: Reduction in serum triglyceride in C57BL/6 mouse model of high-fat diet induced obesity at 25 nmol/kg, sc BID for 21 days relative to control; format: functional, organism-based; conditions: time 21.0 day
[34] = system: Mus musculus; assay: […] activity in non-fasted db/db mouse assessed as improvement in glucose tolerance at dosed intraperitoneally 30 mins before test and measured up to 120 mins by OGTT method; format: functional, organism-based; conditions: time 150.0 min
[35] = system: Mus musculus; assay: Reduction in body fat content in C57BL/6 mouse model of high-fat diet induced obesity at 25 nmol/kg, sc BID for 21 days relative to control; format: functional; design: scale not given: the % may be the effect or the level left; conditions: time 21 day
[36] = Hepatotoxicity in ICR mouse assessed as effect on aspartate aminotransferase level at 1000 nmol/kg, sc BID for 14 days; format: toxicity, organism-based; conditions: in vivo, 336 h, time 14 day
[37] = system: Mus musculus; assay: Reduction in body weight in C57BL/6 mouse model of high-fat diet induced obesity at 25 nmol/kg, sc BID for 21 days relative to control; format: functional; design: scale not given: the % may be the effect or the level left; conditions: time 21 day
[38] = biological target: T2, Gastrin/cholecystokinin type B receptor (Homo sapiens, UniProt P32239); assay: Agonist activity at human CCK-2R expressed in HEK293 cells assessed as stimulation of ERK phosphorylation incubated for 5 mins; format: cell-based
T2 sequence (P32239 whole entry): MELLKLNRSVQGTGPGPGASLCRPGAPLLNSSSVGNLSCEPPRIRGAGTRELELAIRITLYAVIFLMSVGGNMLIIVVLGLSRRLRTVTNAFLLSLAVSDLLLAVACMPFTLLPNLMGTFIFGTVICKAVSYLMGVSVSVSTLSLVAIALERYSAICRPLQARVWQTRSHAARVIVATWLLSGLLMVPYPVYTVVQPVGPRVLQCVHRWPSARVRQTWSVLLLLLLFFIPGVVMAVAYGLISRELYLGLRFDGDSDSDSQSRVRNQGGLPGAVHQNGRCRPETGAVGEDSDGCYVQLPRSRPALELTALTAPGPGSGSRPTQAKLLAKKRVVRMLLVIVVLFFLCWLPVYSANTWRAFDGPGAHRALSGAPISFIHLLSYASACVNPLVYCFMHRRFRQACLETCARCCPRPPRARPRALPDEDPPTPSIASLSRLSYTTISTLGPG

[39] = Hepatotoxicity in ICR mouse assessed as effect on alanine aminotransferase level at 1000 nmol/kg, sc BID for 14 days; format: toxicity, organism-based; conditions: in vivo, 336 h, time 14 day
[40] = system: Mus musculus; assay: Improvement in pancreatic islet area and number level in db/db mouse at 25 nmol/kg, sc BID for 21 days relative to control; format: functional, organism-based; conditions: time 21.0 day

Chain of Glucagon-like peptide 1 receptor (P43220 whole entry): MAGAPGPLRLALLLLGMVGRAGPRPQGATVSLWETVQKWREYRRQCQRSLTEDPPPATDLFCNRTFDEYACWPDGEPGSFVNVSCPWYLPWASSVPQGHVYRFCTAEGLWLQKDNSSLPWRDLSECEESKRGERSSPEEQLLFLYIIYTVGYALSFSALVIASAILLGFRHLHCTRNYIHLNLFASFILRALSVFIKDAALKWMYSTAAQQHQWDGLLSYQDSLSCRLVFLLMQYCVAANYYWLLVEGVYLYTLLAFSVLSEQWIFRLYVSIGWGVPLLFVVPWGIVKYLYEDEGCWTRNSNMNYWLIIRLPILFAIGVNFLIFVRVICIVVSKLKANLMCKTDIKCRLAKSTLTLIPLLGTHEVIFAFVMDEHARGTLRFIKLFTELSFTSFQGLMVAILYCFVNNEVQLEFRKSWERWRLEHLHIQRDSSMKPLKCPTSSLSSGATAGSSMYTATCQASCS

## H-H[Aib]EGTYTNDVTEYCEEEAAKCFIEWLIKGKPSSGAPPPS[AEEA][AEEA]YGWLDF-NH2 (linker 14-21 via X1)
[1]
  Activity: Non-Toxic
[2]
  Activity: Active
[3]
  Activity: Active
[4]
  half-life: 4.4 h
[5]
  Activity: Active
[6]
  Activity: Active
[7]
  Activity: Active
[8]
  Activity: Active
[9]
  EC50: 0.022 nM
[10]
  inhibition: Active
[11]
  Activity: Active
[12]
  Activity: Active
[13]
  inhibition: Active
[14]
  Activity: Active
[15]
  Activity: Active
[16]
  Tmax: 4 h
[17]
  Activity: Active
[18]
  Activity: Active
[19]
  Activity: Active
[20]
  Activity: Dose-dependent effect
[21]
  Activity: Non-Toxic
[22]
  Activity: Active
[23]
  Activity: Active
[24]
  inhibition: Active
[25]
  Activity: Dose-dependent effect
[26]
  Activity: Active
[27]
  Activity: Non-Toxic
[28]
  Activity: Non-Toxic
[29]
  AUC(0-inf): 15900 ng·h/mL
[30]
  EC50: > 1000 nM
[31]
  Activity: Active
[32]
  Activity: Non-Toxic
[33]
  Activity: Active
[34]
  Activity: Dose-dependent effect
[35]
  Activity: 32.2%
[36]
  Activity: Non-Toxic
[37]
  Activity: 26.3%
[38]
  EC50: 7.3 nM
[39]
  Activity: Non-Toxic
[40]
  Activity: Active

## H-H[Aib]EGTYTNDVTEYLEEEAAKCFIEWLICGKPSSGAPPPS[AEEA][AEEA]YGWLDF-NH2 (linker 21-28 via X1)
[1]
  Activity: Non-Toxic
[2]
  Activity: Active
[3]
  Activity: Active
[4]
  half-life: 4.7 h
[5]
  Activity: Active
[6]
  Activity: Active
[7]
  Activity: Active
[8]
  Activity: Active
[9]
  EC50: 0.041 nM
[10]
  inhibition: Active
[11]
  Activity: Active
[12]
  Activity: Active
[13]
  inhibition: Active
[14]
  Activity: Active
[15]
  Activity: Active
[16]
  Tmax: 4 h
[17]
  Activity: Active
[18]
  Activity: Active
[19]
  Activity: Active
[20]
  Activity: Dose-dependent effect
[21]
  Activity: Non-Toxic
[22]
  Activity: Active
[23]
  Activity: Active
[24]
  inhibition: Active
[25]
  Activity: Dose-dependent effect
[26]
  Activity: Active
[27]
  Activity: Non-Toxic
[28]
  Activity: Non-Toxic
[29]
  AUC(0-inf): 19600 ng·h/mL
[30]
  EC50: > 1000 nM
[31]
  Activity: Active
[32]
  Activity: Non-Toxic
[33]
  Activity: Active
[34]
  Activity: Dose-dependent effect
[35]
  Activity: 30.4%
[36]
  Activity: Non-Toxic
[37]
  Activity: 24%
[38]
  EC50: 8.8 nM
[39]
  Activity: Non-Toxic
[40]
  Activity: Active
